Tested on: T1, TePeNMT (TeMT1)
T1 construct: N-terminal His-tag, codon optimized synthetic gene in pET30a(+) NotI/XhoI, E. coli BL21(DE3), Ni-NTA purified; no chloroplast transit peptide predicted
Assay: Michaelis-Menten kinetics, LC-MS/MS detection of product vobasine
Type: biochemical, Tabernaemontana elegans
Settings: 50 μM S-adenosylmethionine (saturating), 20 mM Tris pH 7.5, 30 °C, 5 min
Excerpt: Michaelis-Menten kinetics, LC-MS/MS detection of product vobasine on TePeNMT (TeMT1)

Km: 1910 nM
SMILES: C/C=C1/CN[C@H]2Cc3c([nH]c4ccccc34)C(=O)C[C@@H]1[C@@H]2C(=O)OC [perivine]

— paper PMC11383786, “Parallel evolution of methyltransferases leads to vobasine biosynthesis in Tabernaemontana elegans and Catharanthus roseus” (Frontiers in Plant Science, 2024)
